According to article PMC6302903, “Protein and Chemical Determinants of BL-1249 Action and Selectivity for K2P Channels” (ACS Chemical Neuroscience, 2018):

Target: T1, K2P4.1(TRAAK) (Mus musculus, UniProt O88454)
T1 construct: expressed in transfected cells; host or cells: Xenopus laevis oocytes injected with mRNA made from pGEMHE/pMO
T1 sequence (O88454 1-398): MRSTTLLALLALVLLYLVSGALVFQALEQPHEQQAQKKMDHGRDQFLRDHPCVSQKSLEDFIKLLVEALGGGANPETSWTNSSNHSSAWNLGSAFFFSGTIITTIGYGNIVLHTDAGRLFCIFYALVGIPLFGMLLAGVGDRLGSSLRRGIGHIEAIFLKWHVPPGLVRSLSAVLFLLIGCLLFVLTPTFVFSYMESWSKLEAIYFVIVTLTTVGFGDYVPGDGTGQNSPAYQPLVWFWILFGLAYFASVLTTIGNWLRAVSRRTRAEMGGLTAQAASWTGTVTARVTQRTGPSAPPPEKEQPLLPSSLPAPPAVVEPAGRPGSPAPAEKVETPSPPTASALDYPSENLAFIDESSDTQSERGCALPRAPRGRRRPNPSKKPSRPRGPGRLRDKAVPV
Assay: TEVC of K2P4.1(TRAAK) in Xenopus oocytes
Type: cell-based
From the text: Constructs for murine K2P channels, including K2P2.1(TREK-1) (Gene ID 16526), K2P10.1(TREK-2) (Gene ID 72258), K2P4.1(TRAAK) (Gene ID 16528), K2P5.1(TASK-2) (Gene ID 16529), K2P3.1(TASK-1) (Gene ID 16527), K2P9.1(TASK-3) (Gene ID 223604), and K2P18.1(TRESK) (Gene ID 332396) in pGEMHE/pMO, were used for Xenopus oocyte experiments as previously described.[10],[26] Murine K2P2.1(TREK-1) (Gene ID 16526) was expressed in HEK-293 cells using a pIRES-EGFP construct as previously described.[26] Murine K2P13.1(THIK-1) (Gene ID 217826) and K2P1.1(TWIK-1) (Gene ID 16525) were cloned into pGEMHE/pMO for use in Xenopus oocytes. Chimeras were designed using EMBOSS Needle pairwise sequence alignment tool[58] to match homologous helices in K2P2.1(TREK-1) and K2P4.1(TRAAK) and were assembled using the Gibson assembly method.[59] Chimera boundaries are Thr152 (TREK-1/AAK M2-C), Trp199 (TREK-1/AAK M3-C), Y272 (TREK-1/AAK M4-C), Thr114 (TRAAK/EK-1 M2-C), Trp161 (TRAAK/EK-1 M3-C), and Tyr234 K2P4.1(TRAAK). All sequences were verified using DNA sequencing.
Xenopus laevis oocytes were harvested in accordance with UCSF IACUC protocol AN129690 and digested in calcium-free ND-96 (96 mM NaCl, 2 mM KCl, 3.8 mM MgCl2) immediately following harvest, as previously described.[6],[10] Digested oocytes were maintained in standard ND96 (96 mM NaCl, 2 mM KCl, 1.8 mM CaCl2, 2 mM MgCl2) with antibiotics (100 units mL^–1 penicillin, 100 μg mL^–1 streptomycin, 50 μg mL^–1 gentimycin). Defolliculated stage V–VI oocytes were injected with 0.2–6.0 ng of mRNA in 50 nL, and currents were recorded 24–48 h after injection. mRNA was synthesized from plasmid DNA using mMessage mMachine Kit (T7 promoter, Ambion, Life Technologies) and purified using RNEasy Kit (Qiagen). Injected oocytes were impaled with two standard microelectrodes (0.2–1.0 MΩ) filled with 3 M KCl and subjected to constant perfusion of standard ND96 during recording. Currents were amplified using the GeneClamp 500B (MDS Analytical Technologies) amplifier controlled by the pClamp software (Molecular Devices). Data were digitized at 1 kHz using Digidata 1332A (MDS Analytical Technologies). For all experiments with small molecules, basal currents were evoked using 1 s long ramps from −150 to +50 mV under constant perfusion of ND96. Once stabilized basal currents were recorded, compounds were perfused at various concentrations in standard ND96 and currents were allowed to increase to stabilization before recording final current. Fold activation upon compound application is expressed as I/I0 (0 mV), derived from the current at 0 mV in the presence of compound divided by the basal current at 0 mV in standard ND96 without compound. Data were analyzed and plotted using Graphpad Prism Version 5 (GraphPad Software, San Diego California USA, www.graphpad.com). […] In the case of BL-1249-acid EC50 estimation, upper bound of I/I0 was set to 20 to account for the strong stimulation of BL-1249-acid.

Compound: c1ccc(-c2nnn[nH]2)c(Nc2cccc3c2CCCC3)c1 [BL-1249, (5,6,7,8-tetrahydro-naphthalen-1-yl)-[2-(1H-tetrazol-5-yl)-phenyl]-amine]
- selectivity for K2P2.1(TREK-1) and K2P10.1(TREK-2) over K2P4.1(TRAAK) (EC50): ~10 fold
- K2P4.1(TRAAK) current response (10 μM): weakly stimulated
- EC50 (saturation not reached (solubility limit), fit with upper boundary of 15 (I/I0)): 48 ± 10 µM
